This is an account of results in PMC9890180, “Structural diversity-guided optimization of carbazole derivatives as potential cytotoxic agents” (Frontiers in Chemistry, 2023).

Data set [1] has as its system 7901 (human gastric adenocarcinoma cells). In words: In vitro cytotoxicity MTT assay, 7901 cells. The note with it: for IC50 / inhibition at 40 µg/mL: Homo sapiens; for inhibition at 40 µg/mL: read-out: in vitro inhibition rate on 7901. Background: Tetrazolium dyes change colour on reduction, which living cells bring about.
Description: (§1) The in vitro cytotoxicity of these carbazole derivatives against human melanoma (A875), human gastric adenocarcinoma cells (7901), and a subclone of African green monkey kidney cell line MA-104 (MARC145) cell lines was evaluated using the MTT assay. Briefly, A875, 7901, and MARC145 cells were seeded at 2 × 10^4 cells per well in 96-well plates and grown to subconfluence. After removal of the growth medium, six serial dilutions of each tested compound in 200 µL test medium were added. Plates were incubated at 37°C in a humidified atmosphere containing 5% CO2. After 72 h of exposure, the culture medium was removed and 30 µL of the MTT solution (5 mg/mL in PBS) was added to each well. The plate was further incubated for 4 h to allow MTT formazan formation. To dissolve the resulting MTT formazan, 50 µL of DMSO was added to each well, followed by thorough mixing with a microplate shaker. Absorbance at 570 nm was measured on a microplate reader (Thermo Scientific, MK3). All data were analyzed with SPSS software, and the 50% inhibitory concentrations (IC50) of each compound for the different cell lines were determined. All assays were performed in triplicate on three independent experiments.
Data set [2] has as its system A875 (human melanoma). Briefly: In vitro cytotoxicity MTT assay, A875 cells. The note with it: for IC50 / inhibition at 40 µg/mL: Homo sapiens; for inhibition at 40 µg/mL: A875, read-out: in vitro inhibition rate on A875.
Description: as §1
Data set [3] is described as follows: In vitro cytotoxicity MTT assay, MARC145 cells. The note with it: African green monkey, MARC145 cells (subclone of kidney cell line MA-104).
Description: as §1
The subject of data set [4] is 7901, A875 and MARC145 cell lines. In words: In vitro cytotoxicity MTT assay, overall rating over the tested cell lines. The format is cell-based. How it is done: The relationship between concentration and inhibition rate is the key to whether a potential compound can be use as potential medicinal agents. It is very important to maintain good activity at low concentration. Based on the preliminary screening data, in order to verify the effect of concentration on the potential cytotoxic activities for all compounds, the inhibition activity data of the compounds at different concentrations were detected using the same method. All experiments were carried out on three kinds of cell lines with six concentrations of 40, 20, 10, 5, 1, and 0.5 μg/mL. The inhibition activities for highly potential compounds 7b, 11a, 11b, 14a, and 14b were described in Figure 4.

Data set [5] relates to MARC145 (a subclone of African green monkey kidney cell line MA-104). Briefly: In vitro cytotoxicity MTT assay, MARC145 cells. The note with it: preliminary screening, 40 μg/mL.
Description: as §1
The test system of data set [6] is A875 (human melanoma). Details: method as in Huang et al., 2021. The note with it: previous work; ref Huang et al., 2021; read-out: IC50 against A875; cited from earlier work.
For data set [7], the system named is MARC145 (a subclone of African green monkey kidney cell line MA-104). Details: method as in Huang et al., 2021. The note with it: previous work; ref Huang et al., 2021; cited from earlier work.
Data set [8] concerns 7901 (human gastric adenocarcinoma cells).
Description: as §1
Data set [9] concerns A875 (human melanoma).
Description: as §1
Data set [10] deals with MARC145 (a subclone of African green monkey kidney cell line MA-104).
Description: as §1
[11] abbreviates: 72 h, read-out: In vitro cytotoxicity IC50, 7901.
The mark [12] stands for this setting: A875, 72 h, read-out: In vitro cytotoxicity IC50, A875.
[13] abbreviates: A875, read-out: A875 IC50 (Figure 5).

Read-outs that look alike come from different tables or passages of the source.

The term melting point denotes the temperature of the solid-liquid transition. As a reminder, the IC50 is the concentration needed to halve the response being measured. Consider `Cc1c(C(=O)Nc2ccc(S(=O)(=O)Nc3ccccc3Oc3ccccc3)cc2)ccc2c1[nH]c1ccccc12` [Compound 7a, 1-Methyl-N-(4-(N-(2-phenoxyphenyl)sulfamoyl)phenyl)-9H-carbazole-2-carboxamide], for which the melting point worked out at 78 °C. The IC50 in data set [1] (setting [11]) stood at 64.7 ± 15.1 µM. Further, in the data set with A875 (human melanoma) [2] (setting [12]), the half-maximal inhibitory concentration (IC50) came to 33.5 ± 1.63 µM. The compound further returned an IC50 at 72 h in [3] of 51.5 ± 9.24 µM.
`CC(C(=O)NN=Cc1ccc(Cl)cc1)c1ccc2c(c1)[nH]c1ccc(Cl)cc12` (stereo not drawn) [Compound 14f, 2-(6-Chloro-9H-carbazol-2-yl)-N'-(4-chlorobenzylidene)propanehydrazide]: the melting point is 218 °C. The IC50 in data set [1] (read-out: 7901 IC50 (Figure 5)) was greater than 100 µM. The half-inhibitory concentration (IC50) in the data set with A875 (human melanoma) [2] (setting [12]) is greater than 40 µM. Further, the IC50 in the data set with A875 (human melanoma) [2] (setting [13]) is greater than 100 µM. In data set [3], this compound gave an IC50 at 72 h greater than 40 µM.
For orientation: inhibition means the share of the control response that was lost under treatment. Take `CC(C(=O)NN=CC=Cc1ccc(Cl)cc1)c1ccc2c(c1)[nH]c1ccc(Cl)cc12` (stereo not drawn) [Compound 14b, 2-(6-Chloro-9H-carbazol-2-yl)-N'-(3-(4-chlorophenyl)allylidene)propanehydrazide]: the melting point was determined as 186 °C. In data set [4], the “Inhibitory activity on tested cells, in words” value (shortened to “Inhibitory activity”) is listed as “good inhibition activities on all tested cells”. Besides, the IC50 in data set [1] (setting [11]) is 18.9 ± 2.64 µM. In addition, the inhibition at 40 µg/mL in data set [1] is greater than 70%. The IC50 in the data set with A875 (human melanoma) [2] (setting [12]) worked out at 45.6 ± 30.6 µM. The inhibition at 40 µg/mL in the data set with A875 (human melanoma) [2] was greater than 70%. Further, it took 19.6 ± 6.94 µM to reach half-maximal inhibition in data set [3] (IC50 at 72 h).
For the compound `O=c1[nH]cc(F)c(=O)[nH]1` [Compound 5-FU, 5-fluorouracil, reference compound], the IC50 in data set [1] (setting [11]) amounted to 63.5 ± 4.92 µM; in the data set on A875 (human melanoma) [2] (setting [12]), 80.1 ± 6.61 µM. This compound had an IC50 at 72 h in [3] of 86.3 ± 8.3 µM.
Compound `CC(C(=O)NN=Cc1c[nH]c2ccccc12)c1ccc2c(c1)[nH]c1ccc(Cl)cc12` (stereo not drawn) [Compound 14d, N'-((1H-Indol-3-yl)methylene)-2-(6-chloro-9H-carbazol-2-yl)propanehydrazide] registered a melting point of 209 °C. In addition, the IC50 in the data set with A875 (human melanoma) [2] (setting [12]) is 37.6 ± 8.15 µM. In addition, in data set [3], the IC50 at 72 h is 42.4 ± 4.58 µM.
For `Cc1c(C(=O)NCC(=O)c2ccccc2)ccc2c1[nH]c1ccccc12` [Compound 7e, 1-Methyl-N-(2-oxo-2-phenylethyl)-9H-carbazole-2-carboxamide], in that order: 153 °C, greater than 40 µM and 62.6 ± 28.2 µM.
Consider `CC(C(=O)NCCS(C)(=O)=O)c1ccc2c(c1)[nH]c1ccc(Cl)cc12` (stereo not drawn) [Compound 11d, 2-(6-Chloro-9H-carbazol-2-yl)-N-(2-(methylsulfonyl)ethyl)propanamide], for which the melting point came to 149 °C. Besides, the “Inhibitory activity” value in data set [4] is on record as “lost activity”. In addition, the IC50 with A875 (human melanoma) [2] (setting [12]) was greater than 40 µM. In addition, the IC50 at 72 h in [3] is greater than 40 µM.
For `Cc1ccc(NNC(=O)C(C)c2ccc3c(c2)[nH]c2ccc(Cl)cc23)cc1` (stereo not drawn) [Compound 11c, 2-(6-Chloro-9H-carbazol-2-yl)-N'-(p-tolyl)propanehydrazide], the melting point stood at 188 °C. Moreover, the IC50 in the data set with A875 (human melanoma) [2] (setting [12]) was greater than 40 µM. Also, the IC50 at 72 h in data set [3] amounted to 64 ± 20.1 µM.
`COc1cc(C=NNC(=O)C(C)c2ccc3c(c2)[nH]c2ccc(Cl)cc23)ccc1O` (stereo not drawn) [Compound 14e, 2-(6-Chloro-9H-carbazol-2-yl)-N'-(4-hydroxy-3-methoxybenzylidene)propanehydrazide] yielded a melting point of 239 °C. Further, the “Inhibitory activity” value in data set [4] is reported as “almost lost its activity”. The IC50 in [1] (read-out: 7901 IC50 (Figure 5)) was greater than 100 µM. For the same compound, the IC50 with A875 (human melanoma) [2] (setting [12]) is greater than 40 µM. In the data set with A875 (human melanoma) [2] (setting [13]), the IC50 is greater than 100 µM. For the same compound, the IC50 at 72 h in [3] is greater than 40 µM.
`Cc1c(C(=O)Nc2ccc(S(=O)(=O)Nc3ccc(Cl)nc3)cc2)ccc2c1[nH]c1ccccc12` [Compound 7b, N-(4-(N-(6-Chloropyridin-3-yl)sulfamoyl)phenyl)-1-methyl-9H-carbazole-2-carboxamide] had a melting point of 93 °C. The “Inhibitory activity” value in data set [4] is “moderate inhibitory activity”. In data set [1] (setting [11]), the IC50 amounted to 58.1 ± 11.3 µM. In addition, the inhibition at 40 µg/mL in data set [1] is greater than 70%. For the same compound, the IC50 in the data set on A875 (human melanoma) [2] (setting [12]) came to 23 ± 16.9 µM. Also, the inhibition at 40 µg/mL with A875 (human melanoma) [2] was greater than 70%. The same compound came in with an IC50 at 72 h in data set [3] of 58.9 ± 16.7 µM. Further, in [5], the “Toxicity to normal cells MARC-145 compared with cancer cells, in words” value (from here on “Toxicity … compared with cancer cells, in words”) is “less toxicity to normal cells MARC-145 than cancer cells”.
Take `COc1cccc(/C=N/NC(=O)c2ccc3c([nH]c4ccccc43)c2C)c1O` [Compound 2021-7e]: the IC50 in the data set on A875 (human melanoma) [6] is 4.15 µM; in data set [7], 26.6 µM.
`CC(C(=O)NN=Cc1ccc2c(c1)OCO2)c1ccc2c(c1)[nH]c1ccc(Cl)cc12` (stereo not drawn) [Compound 14c, N'-(Benzo[d][1,3]dioxol-5-ylmethylene)-2-(6-chloro-9H-carbazol-2-yl)propanehydrazide] yielded a melting point of 240 °C. The IC50 with A875 (human melanoma) [2] (setting [12]) was greater than 40 µM. The compound also had an IC50 at 72 h in data set [3] greater than 40 µM.
Compound `COc1cccc(C=NNC(=O)C(C)c2ccc3c(c2)[nH]c2ccc(Cl)cc23)c1O` (stereo not drawn) [Compound 14a, 2-(6-Chloro-9H-carbazol-2-yl)-N'-(2-hydroxy-3-methoxybenzylidene)propanehydrazide] registered a melting point of 217 °C. Besides, the “Inhibitory activity” value in data set [4] is recorded as “good inhibition activities on all tested cells”. Moreover, the “Inhibition activity at low concentration, in words” value in [4] (concentration of 5 μg/mL) is on record as “good activity”. Besides, the IC50 in data set [1] (setting [11]) turned out to be 11.8 ± 1.26 µM. In addition, the inhibition at 40 µg/mL in [1] is greater than 70%. For the same compound, in the data set with A875 (human melanoma) [2] (setting [12]), the half-inhibitory concentration (IC50) came out at 9.77 ± 8.32 µM. Further, the IC50 with A875 (human melanoma) [2] (setting [13]) is 9.77 ± 8.33 µM. Also, the inhibition at 40 µg/mL in the data set with A875 (human melanoma) [2] is greater than 70%. For the same compound, half-maximal inhibition in data set [3] (IC50 at 72 h) required 7.47 ± 4.15 µM. Moreover, the “Toxicity … compared with cancer cells, in words” value in data set [5] is “less toxicity to normal cells MARC-145 than cancer cells”.
Compound `CC(C(=O)NN=Cc1ccc(Cl)cc1Cl)c1ccc2c(c1)[nH]c1ccc(Cl)cc12` (stereo not drawn) [Compound 14g, 2-(6-Chloro-9H-carbazol-2-yl)-N'-(2,4-dichlorobenzylidene)propanehydrazide] returned a melting point of 241 °C. The IC50 in data set [1] (setting [11]) came out at 38.8 ± 2.74 µM. Also, the IC50 in the data set on A875 (human melanoma) [2] (setting [12]) was greater than 40 µM. Half-maximal inhibition in data set [3] (IC50 at 72 h) required 96.3 ± 63.3 µM.
Consider `CC(C(=O)Nc1ccccc1NS(C)(=O)=O)c1ccc2c(c1)[nH]c1ccc(Cl)cc12` (stereo not drawn) [Compound 11a, 2-(6-Chloro-9H-carbazol-2-yl)-N-(2-(methylsulfonamido)phenyl)propanamide], for which the melting point came to 163 °C. In addition, the “Inhibitory activity” value in data set [4] is given as “good inhibition activities on all tested cells”. The IC50 in data set [1] (setting [11]) came to 21.9 ± 3.05 µM. Moreover, the inhibition at 40 µg/mL in data set [1] was greater than 70%. Moreover, in the data set with A875 (human melanoma) [2] (setting [12]), the IC50 is 36.7 ± 2.96 µM. In addition, in the data set with A875 (human melanoma) [2], the inhibition at 40 µg/mL was greater than 70%. In [3], this compound had an IC50 at 72 h of 22.9 ± 14.3 µM. For the same compound, the “Toxicity … compared with cancer cells, in words” value in [5] is “less toxicity to normal cells MARC-145 than cancer cells”.
`Cc1ccc(S(=O)(=O)N(NC(=O)c2ccc3c([nH]c4ccccc43)c2C)C(C)(C)C)cc1` [Compound 7d, N-(tert-Butyl)-4-methyl-N'-(1-methyl-9H-carbazole-2-carbonyl)benzenesulfonohydrazide]: the melting point amounted to 97 °C. The “Inhibitory activity” value in [4] is “decreases significantly”. Also, in data set [1] (setting [11]), the IC50 came to 34.5 ± 9.9 µM. Moreover, the IC50 with A875 (human melanoma) [2] (setting [12]) is greater than 40 µM. Moreover, it took 18.7 ± 4.16 µM to reach half-maximal inhibition in data set [3] (IC50 at 72 h).
With `Cc1c(C(=O)NN(C(=O)c2ccccc2)C(C)(C)C)ccc2c1[nH]c1ccccc12` [Compound 7c, N'-Benzoyl-N'-(tert-butyl)-1-methyl-9H-carbazole-2-carbohydrazide], the melting point turned out to be 212 °C. Moreover, in the data set on A875 (human melanoma) [2] (setting [12]), the IC50 is greater than 40 µM. The compound also gave an IC50 at 72 h in data set [3] of 58.4 ± 31.6 µM.
As to “2-(6-Chloro-9H-carbazol-2-yl)-N-(2-((dimethylphosphoryl)amino)phenyl)propanamide [Compound 11b]”, the “Inhibitory activity” value in data set [4] was “good inhibition activities on all tested cells”. Also, the IC50 in data set [8] was 20.6 ± 3.3 µM; with A875 (human melanoma) [9], 33.6 ± 9.48 µM; in [10], 17.3 ± 7.25 µM. Moreover, the “in vitro inhibition rate on 7901” value in data set [1] (concentration of 40 μg/mL) was greater than 70%. In addition, the “in vitro inhibition rate on A875” value in the data set on A875 (human melanoma) [2] (concentration of 40 μg/mL) is reported as greater than 70%.
`CC(C(=O)Nc1ccc(S(=O)(=O)Nc2ncccn2)cc1)c1ccc2c(c1)[nH]c1ccc(Cl)cc12` (stereo not drawn) [Compound 11e, 2-(6-Chloro-9H-carbazol-2-yl)-N-(4-(N-(pyrimidin-2-yl)sulfamoyl)phenyl)propanamide] yielded a melting point of 157 °C. Besides, in the data set on A875 (human melanoma) [2] (setting [12]), the IC50 is greater than 40 µM. This compound came in with a half-maximal inhibitory concentration (IC50) at 72 h in [3] greater than 40 µM.
